# Laboratory results: patent publication US9181235B2, “Substituted pyridines for modulating the WNT signaling pathway” (NOVARTIS AG, priority 2010, dated 2015)
# System: Wnt signaling
# Test: Wnt-Luc reporter assay for pathway inhibition of Wnt signaling
# Format: cell-based, mouse (TM3 Wnt-Luc) or human (293 Wnt-Luc); not stated which
# Settings: Wnt-Luc reporter cells co-cultured with L-cell Wnt3a cells, 24 hours, luciferase signal reduced by 50%
# How it was run: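 Stable STF (Wnt-responsive luciferase) reporter lines, mouse TM3 or human HEK293, co-cultured with Wnt3a-producing L-cells in DMEM with 2% FBS and treated with compound for 24 h. Firefly luciferase read by Bright-Glo; IC50 taken as concentration giving 50% reduction in luminescence.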
row,IC50,Structure (SMILES)
1,26 nM,"CC(=O)N1CCN(c2ccc(C(=O)NCc3cnc(-c4ccnc(C(F)(F)F)c4)c(C)c3)nc2)CC1 [compound 48, 5-(4-Acetylpiperazin-1-yl)-N-((3-methyl-2′-(trifluoromethyl)-2,4′-bipyridin-5-yl)methyl)picolinamide]"
2,0.29 nM,"Cc1cc(-c2ncc(CNC(=O)c3ccc(-c4cccc(F)c4)cn3)cc2F)ccn1 [compound 59, N-{[5-fluoro-6-(2-methylpyridin-4-yl)pyridin-3-yl]methyl}-5-(3-fluorophenyl)pyridine-2-carboxamide]"
3,0.5 nM,"Cc1cc(-c2ccc(CNC(=O)c3ccc(-c4cccc(F)c4)cn3)cn2)ccn1 [compound 26, 5-(3-fluorophenyl)-N-{[6-(2-methylpyridin-4-yl)pyridin-3-yl]methyl}pyridine-2-carboxamide]"
4,0.1 nM,"Cc1cc(-c2ccc(CNC(=O)c3ccc(-c4ccccn4)cc3)cc2)ccn1 [compound 13, N-(4-(2-methylpyridin-4-yl)benzyl)-4-(pyridin-2-yl)benzamide]"
5,0.9 nM,"O=C(NCc1ccc(-c2ccnc(C(F)(F)F)c2)cc1)c1ccc(-c2cnccn2)cc1 [compound 28, 4-(Pyrazin-2-yl)-N-(4-(2-(trifluoromethyl)pyridin-4-yl)benzyl)benzamide]"
6,0.2 nM,"O=C(NCc1ccc(-c2ccnc(C(F)(F)F)c2)nc1)c1ccc(-c2cccc(F)c2)cn1 [compound 33, 5-(3-Fluorophenyl)-N-((2′-(trifluoromethyl)-2,4′-bipyridin-5-yl)methyl)picolinamide]"
7,2.7 nM,"CC(=O)N1CCN(c2ccc(C(=O)NCc3cnc(-c4ccnc(C(F)(F)F)c4)c(F)c3)nc2)CC1 [compound 84, 5-(4-Acetylpiperazin-1-yl)-N-((3-fluoro-2′-(trifluoromethyl)-2,4′-bipyridin-5-yl)methyl)picolinamide]"
8,4.2 nM,"Cc1cc(-c2ncc(CNC(=O)c3ccc(-c4cc(F)ccc4C)cn3)cc2C)ccn1 [compound 80, 5-(5-fluoro-2-methylphenyl)-N-{[5-methyl-6-(2-methylpyridin-4-yl)pyridin-3-yl]methyl}pyridine-2-carboxamide]"
9,1.9 nM,"O=C(NCc1ccc(-c2ccnc(C(F)(F)F)c2)nc1)c1ccc(-c2ccc(N3CCCC3=O)nc2)cn1 [compound 72, 6′-(2-Oxopyrrolidin-1-yl)-N-((2′-(trifluoromethyl)-[2,4′-bipyridin]-5-yl)methyl)-[3,3′-bipyridine]-6-carboxamide]"
10,4.9 nM,"Cc1cc(-c2ccc(CNC(=O)c3ccc(-c4ccc(F)cc4)cn3)cn2)ccn1 [compound 35, 5-(4-fluorophenyl)-N-{[6-(2-methylpyridin-4-yl)pyridin-3-yl]methyl}pyridine-2-carboxamide]"
11,13 nM,"Cc1cc(C(=O)NCc2cnc(-c3ccnc(C(F)(F)F)c3)c(C)c2)ccc1-c1cnccn1 [compound 78, 3-methyl-N-({5-methyl-6-[2-(trifluoromethyl)pyridin-4-yl]pyridin-3-yl}methyl)-4-(pyrazin-2-yl)benzamide]"
12,6.3 nM,"Cc1ccc(F)cc1-c1ccc(C(=O)NCc2cnc(-c3ccnc(C(F)(F)F)c3)c(C)c2)nc1 [compound 77, 5-(5-fluoro-2-methylphenyl)-N-({5-methyl-6-[2-(trifluoromethyl)pyridin-4-yl]pyridin-3-yl}methyl)pyridine-2-carboxamide]"
13,27 nM,"Cc1cc(-c2ccc(CNC(=O)c3ccc(-c4ccnnc4)nc3)cc2)ccn1 [compound 19, N-{[4-(2-methylpyridin-4-yl)phenyl]methyl}-6-(pyridazin-4-yl)pyridine-3-carboxamide]"
14,0.7 nM,"O=C(NCc1ccc(-c2ccnc(C(F)(F)F)c2)nc1)c1ccc(-c2cnccn2)cc1 [compound 32, 4-(pyrazin-2-yl)-N-({6-[2-(trifluoromethyl)pyridin-4-yl]pyridin-3-yl}methyl)benzamide]"
15,92 nM,"O=C(NCC1CCN(C(=O)c2ccnc(F)c2)CC1)c1ccc(-c2cccc(F)c2)nc1 [compound 93, N-((1-(2-Fluoroisonicotinoyl)piperidin-4-yl)methyl)-6-(3-fluorophenyl)nicotinamide]"
16,0.76 nM,"Cc1cc(CNC(=O)c2ccc(-c3cnccn3)nc2)cnc1-c1ccnc(F)c1 [compound 40, N-{[6-(2-fluoropyridin-4-yl)-5-methylpyridin-3-yl]methyl}-6-(pyrazin-2-yl)pyridine-3-carboxamide]"
17,2.4 nM,"O=C(NCc1ccc(N2CCS(=O)(=O)CC2)nc1)c1ccc(-c2cccc(F)c2)nc1 [compound 4, N-((6-(1,1-dioxidothiomorpholino)pyridin-3-yl)methyl)-6-(3-fluorophenyl)nicotinamide]"
18,0.79 nM,"O=C(NCc1ccc(-c2ccnc(C(F)(F)F)c2)nc1)c1ccc(-c2cnccn2)nc1 [compound 42, 6-(Pyrazin-2-yl)-N-((2′-(trifluoromethyl)-2,4′-bipyridin-5-yl)methyl)nicotinamide]"
19,6 nM,"Cc1cccnc1-c1ccc(C(=O)NCc2ccc(-c3ccnc(C(F)(F)F)c3)nc2)nc1 [compound 73, 5-(3-methylpyridin-2-yl)-N-({6-[2-(trifluoromethyl)pyridin-4-yl]pyridin-3-yl}methyl)pyridine-2-carboxamide]"
20,19 nM,"COC(=O)N1CCN(c2ccc(C(=O)NCc3ccc(N4CCS(=O)(=O)CC4)nc3)cc2)CC1 [compound 7, methyl 4-(4-(((6-(1,1-dioxidothiomorpholino)pyridin-3-yl)methyl)carbamoyl)phenyl)piperazine-1-carboxylate]"
21,8 nM,"CC(=O)c1cccc(-c2ccc(C(=O)NCc3ccc(-c4ccnc(C)c4)nc3)nc2)c1 [compound 31, 5-(3-acetylphenyl)-N-{[6-(2-methylpyridin-4-yl)pyridin-3-yl]methyl}pyridine-2-carboxamide]"
22,129 nM,"O=C(NCc1ccc(N2CCS(=O)(=O)CC2)nc1)c1ccc(-c2cccnc2)nc1 [compound 5, N-((6-(1,1-dioxidothiomorpholino)pyridin-3-yl)methyl)-[2,3′-bipyridine]-5-carboxamide]"
23,0.06 nM,"Cc1cc(-c2ccc(CNC(=O)c3ccc(-c4ccccc4)cc3)cc2)ccn1 [compound 9, N-{[4-(2-methylpyridin-4-yl)phenyl]methyl}-4-phenylbenzamide]"
24,420 nM,"Cc1cc(-c2ccc(CNC(=O)c3ccc(Oc4ccccc4)nc3)cn2)ccn1 [compound 95, N-((2′-methyl-[2,4′-bipyridin]-5-yl)methyl)-6-phenoxynicotinamide]"
25,0.06 nM,"Cc1cc(-c2ccc(CNC(=O)c3ccc(-c4cnccn4)cc3)cc2)ccn1 [compound 17, N-{[4-(2-methylpyridin-4-yl)phenyl]methyl}-4-(pyrazin-2-yl)benzamide]"

# System: not listed separately
# Test: Comparative stability in simulated gastric fluid (SGF), degradation by LCMS
# Format: physicochemical
# Settings: 50° C. SGF, 4 hr, LCMS UV peak areas at 254 nm
# Protocol: The stability of exemplified compounds of the invention were compared with N-(hetero)aryl, 2-(heteroy)aryl-substituted acetamides. Test compounds were dissolved or suspended in a specified media (e.g. simulated gastric fluid (SGF)). The resulting solution or suspension was kept at the testing temperature (e.g. 50° C.) for a given time (e.g. 4 hours), and the extent of degradation was quantified by LCMS using the respective UV absorption peak areas at 254 nm.
row,% degradn. @ 4 hr,Structure (SMILES)
1,~0%,Cc1cc(-c2ncc(CNC(=O)c3ccc(-c4cnccn4)cn3)cc2F)ccn1 [drawing 199]
2,11.5%,O=C(Cc1ccc(-c2ccnnc2)c(C(F)(F)F)c1)Nc1ccc(-c2cccnn2)cn1 [reference compound]

# Same assay, conditions: 50° C. SGF, 8 hr, LCMS UV peak areas at 254 nm
row,% degradn. @ 8 hr,Structure (SMILES)
1,~0. %,Cc1cc(-c2ncc(CNC(=O)c3ccc(-c4cnccn4)cn3)cc2F)ccn1 [drawing 199]
2,16.6%,O=C(Cc1ccc(-c2ccnnc2)c(C(F)(F)F)c1)Nc1ccc(-c2cccnn2)cn1 [reference compound]

# Same assay, conditions: 50° C. SGF, 24 hr, LCMS UV peak areas at 254 nm
row,% degradn. @ 24 hr,Structure (SMILES)
1,25.0%,Cc1cc(CC(=O)Nc2ccc(-c3cccc(F)c3)cn2)cnc1-c1ccnnc1 [reference compound]
2,~0%,Cc1cc(CNC(=O)c2ccc(-c3cnccn3)cn2)cnc1-c1ccnc(C(F)(F)F)c1 [drawing 200]
3,~0%,Cc1cc(-c2ncc(CNC(=O)c3ccc(-c4cnccn4)cn3)cc2F)ccn1 [drawing 199]
4,26.7%,O=C(Cc1ccc(-c2ccnnc2)c(C(F)(F)F)c1)Nc1ccc(-c2cccnn2)cn1 [reference compound]
